In patent publication US9809574B2, “Isoindoline or isoquinoline compounds, a process for their preparation and pharmaceutical compositions containing them” (LES LABORATOIRES SERVIER, priority 2013, dated 2017) one finds IC50 data, which are given here for 18 compounds.

Bounds are passed on as bounds.

The subject of assay [1] is RS4; 11 leukaemia cell line. Description: In vitro cytotoxicity, Microculture Tetrazolium Assay (MTT). The conditions noted are these: Homo sapiens, 11 cells exposed for 48 hours. The class given is cell-based. The protocol:
The cytotoxicity studies were carried out on the RS4; 11 leukaemia cell line and on H146 small Cell Lung Carcinoma cell line. The cells are distributed onto microplates and exposed to the test compounds for 48 hours. The cell viability is then quantified by a colorimetric assay, the Microculture Tetrazolium Assay (Cancer Res., 1987, 47, 939-942).

For another assay, the target named is Bcl-2 protein (histag-Bcl-2, UniProtKB P10415) (Homo sapiens (Human), UniProt P10415). Description: Inhibition of Bcl-2 by the fluorescence polarisation technique. The format is binding. As to conditions: fluorescence polarisation test; incubation for 2 hours; read-out: IC50 (nM) Bcl-2 FP. The source says: For partial inhibitors, the percentage fluorescence polarisation inhibition for a given concentration of the test compound is indicated.
Sequence of Bcl-2 protein (P10415 whole entry): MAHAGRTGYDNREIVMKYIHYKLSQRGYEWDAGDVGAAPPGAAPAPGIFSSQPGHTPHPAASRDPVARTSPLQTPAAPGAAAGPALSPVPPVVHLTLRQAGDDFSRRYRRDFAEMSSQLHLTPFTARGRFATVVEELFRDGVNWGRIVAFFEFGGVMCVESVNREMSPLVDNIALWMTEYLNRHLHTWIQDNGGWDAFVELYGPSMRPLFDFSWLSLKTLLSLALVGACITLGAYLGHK
In general terms: In fluorescence polarisation assays a small probe gives low polarisation when free and higher when bound to something large.

Usually IC50 stands for the point on the concentration scale where inhibition reaches its midpoint. In the case of `C[C@@H]1Cc2ccccc2CN1C(=O)c1cc2c(cc1-c1cc(C(=O)N(C)c3ccc(O)cc3)c3n1CCCC3)CCN(C(=O)c1ccccc1)C2` [Example 35, 3-{2-Benzoyl-7-[(3R)-3-methyl-1,2,3,4-tetrahydroisoquinoline-2-carbonyl]-1,2,3,4-tetrahydroisoquinolin-6-yl}-N-(4-hydroxyphenyl)-N-methyl-5,6,7,8-tetrahydroindolizine-1-carboxamide], the values for the IC50 (in assay [1]; at Bcl-2 protein) were 8.5 nM and 4.7 nM, respectively.
Consider `C[C@@H]1Cc2ccccc2CN1C(=O)c1cc2c(cc1-c1cc(C(=O)N(C)c3ccc(O)cc3)c3n1CCCC3)CCN(C(=O)Cc1ccccc1)C2` [Example 36, N-(4-Hydroxyphenyl)-N-methyl-3-{7-[(3R)-3-methyl-1,2,3,4-tetrahydroisoquinoline-2-carbonyl]-2-(2-phenylacetyl)-1,2,3,4-tetrahydroisoquinolin-6-yl}-5,6,7,8-tetrahydroindolizine-1-carboxamide], for which the figures for the IC50 (in assay [1]; on Bcl-2 protein) were 6.2 nM and 4.8 nM, respectively.
For `C[C@@H]1Cc2ccccc2CN1C(=O)c1cc2c(cc1-c1cc(C(=O)N(C)c3ccc(O)cc3)c3n1CCCC3)CCN(C(=O)CCc1ccccc1)C2` [Example 37, N-(4-Hydroxyphenyl)-N-methyl-3-{7-[(3R)-3-methyl-1,2,3,4-tetrahydroisoquinoline-2-carbonyl]-2-(3-phenylpropanoyl)-1,2,3,4-tetrahydroisoquinolin-6-yl}-5,6,7,8-tetrahydroindolizine-1-carboxamide], the IC50 amounted to 18 nM in assay [1] and 4.9 nM on Bcl-2 protein.
Turning to `CN(C(=O)c1cc(-c2cc3c(cc2C(=O)N2Cc4ccccc4C[C@H]2CN2CCOCC2)CN(S(=O)(=O)Cc2ccccc2)C3)n2c1CCCC2)c1ccc(O)cc1` [Example 38, N-(4-Hydroxyphenyl)-N-methyl-3-{6-[(3S)-3-(morpholin-4-ylmethyl)-1,2,3,4-tetrahydroisoquinoline-2-carbonyl]-2-phenylmethanesulfonyl-2,3-dihydro-1H-isoindol-5-yl}-5,6,7,8-tetrahydroindolizine-1-carboxamide], the IC50 is 532 nM in assay [1] and 23 nM on Bcl-2 protein.
On the same counts, the results for `C[C@@H]1Cc2ccccc2CN1C(=O)c1cc2c(cc1-c1cc(C(=O)N(C)c3ccc(O)cc3)c3n1CCCC3)CCN(S(=O)(=O)c1ccccc1)C2` [Example 39, 3-[2-(Benzenesulfonyl)-7-[(3R)-3-methyl-1,2,3,4-tetrahydroisoquinoline-2-carbonyl]-1,2,3,4-tetrahydroisoquinolin-6-yl]-N-(4-hydroxyphenyl)-N-methyl-5,6,7,8-tetrahydroindolizine-1-carboxamide] are 106 nM and 14 nM.
On the same counts, the results for `C[C@@H]1Cc2ccccc2CN1C(=O)c1cc2c(cc1-c1cc(C(=O)N(C)c3ccc(O)cc3)c3n1CCCC3)CCN(S(=O)(=O)Cc1ccccc1)C2` [Example 40, N-(4-Hydroxyphenyl)-N-methyl-3-{7-[(3R)-3-methyl-1,2,3,4-tetrahydroisoquinoline-2-carbonyl]-2-phenylmethanesulfonyl-1,2,3,4-tetrahydroisoquinolin-6-yl}-5,6,7,8-tetrahydroindolizine-1-carboxamide] are 34 nM and 3.6 nM.
On to `C[C@@H]1Cc2ccccc2CN1C(=O)c1cc2c(cc1-c1cc(C(=O)N(C)c3ccc(O)cc3)c3n1CCCC3)CCN(S(=O)(=O)c1ccc3ccccc3c1)C2` [Example 41, N-(4-Hydroxyphenyl)-N-methyl-3-{7-[(3R)-3-methyl-1,2,3,4-tetrahydroisoquinoline-2-carbonyl]-2-(naphthalene-2-sulfonyl)-1,2,3,4-tetrahydroisoquinolin-6-yl}-5,6,7,8-tetrahydroindolizine-1-carboxamide], for which the IC50 in assay [1] came to 78 nM; on Bcl-2 protein, 26 nM.
On to `CN(C(=O)c1cc(-c2cc3c(cc2C(=O)N2Cc4ccccc4C[C@H]2CN2CCOCC2)CN(C(=O)Cc2cccnc2)C3)n2c1CCCC2)c1ccc(O)cc1` [Example 42, N-(4-Hydroxyphenyl)-N-methyl-3-{6-[(3S)-3-(morpholin-4-ylmethyl)-1,2,3,4-tetrahydroisoquinoline-2-carbonyl]-2-[2-(pyridin-3-yl)acetyl]-2,3-dihydro-1H-isoindol-5-yl}-5,6,7,8-tetrahydroindolizine-1-carboxamide], for which the IC50 in assay [1] was > 150 nM; on Bcl-2 protein, 38 nM.
Take `C[C@@H]1Cc2ccccc2CN1C(=O)c1cc2c(cc1-c1cc(C(=O)N(c3ccccc3)c3ccc(O)cc3)c3n1CCCC3)CN(C(=O)OC(C)(C)C)C2` [Example 43, tert-Butyl 5-{1-[(4-hydroxyphenyl)(phenyl)carbamoyl]-5,6,7,8-tetrahydroindolizin-3-yl}-6-[(3R)-3-methyl-1,2,3,4-tetrahydroisoquinoline-2-carbonyl]-2,3-dihydro-1H-isoindole-2-carboxylate]: the IC50 in assay [1] is 502 nM; at Bcl-2 protein, 77 nM.
The like results for `C[C@@H]1Cc2ccccc2CN1C(=O)c1cc2c(cc1-c1cc(C(=O)N(c3ccccc3)c3ccc(O)cc3)c3n1CCCC3)CNC2` [Example 44, N-(4-Hydroxyphenyl)-3-{6-[(3R)-3-methyl-1,2,3,4-tetrahydroisoquinoline-2-carbonyl]-2,3-dihydro-1H-isoindol-5-yl}-N-phenyl-5,6,7,8-tetrahydroindolizine-1-carboxamide] were, in that order, 443 nM and 13 nM.
As for `C[C@@H]1Cc2ccccc2CN1C(=O)c1cc2c(cc1-c1cc(C(=O)N(C)c3ccc(O)cc3)c3n1CCCC3)CN(C(=O)Oc1ccccc1)C2` [Example 45, Phenyl 5-{1-[(4-hydroxyphenyl)(methyl)carbamoyl]-5,6,7,8-tetrahydroindolizin-3-yl}-6-[(3R)-3-methyl-1,2,3,4-tetrahydroisoquinoline-2-carbonyl]-2,3-dihydro-1H-isoindole-2-carboxylate], the IC50 in assay [1] was found to be 20 nM; on Bcl-2 protein it was 15 nM.
Regarding `C[C@@H]1Cc2ccccc2CN1C(=O)c1cc2c(cc1-c1cc(C(=O)N(C)c3ccc(O)cc3)c3n1CCCC3)CCN(C(=O)Oc1ccccc1)C2` [Example 46, Phenyl 6-{1-[(4-hydroxyphenyl)(methyl)carbamoyl]-5,6,7,8-tetrahydroindolizin-3-yl}-7-[(3R)-3-methyl-1,2,3,4-tetrahydroisoquinoline-2-carbonyl]-1,2,3,4-tetrahydroisoquinoline-2-carboxylate], the IC50 amounted to 2.8 nM in assay [1] and 3.7 nM on Bcl-2 protein.
As for `C[C@@H]1Cc2ccccc2CN1C(=O)c1cc2c(cc1-c1cc(C(=O)N(C)c3ccc(O)cc3)c3n1CCCC3)CCN(C(=O)OC(C)(C)C)C2` [Example 47, tert-Butyl 6-{1-[(4-hydroxyphenyl)(methyl)carbamoyl]-5,6,7,8-tetrahydroindolizin-3-yl}-7-[(3R)-3-methyl-1,2,3,4-tetrahydroisoquinoline-2-carbonyl]-1,2,3,4-tetrahydroisoquinoline-2-carboxylate], the figures for the IC50 (in assay [1]; at Bcl-2 protein) were 45 nM and 12 nM, respectively.
For the compound `C[C@@H]1Cc2ccccc2CN1C(=O)c1cc2c(cc1-c1cc(C(=O)N(C)c3ccc(O)cc3)c3n1CCCC3)CCN(C(=O)NC(C)(C)C)C2` [Example 48, N-tert-Butyl-6-{1-[(4-hydroxyphenyl)(methyl)carbamoyl]-5,6,7,8-tetrahydroindolizin-3-yl}-7-[(3R)-3-methyl-1,2,3,4-tetrahydroisoquinoline-2-carbonyl]-1,2,3,4-tetrahydroisoquinoline-2-carboxamide], the IC50 was 40 nM in assay [1] and 8.7 nM at Bcl-2 protein.
Take `C[C@@H]1Cc2ccccc2CN1C(=O)c1cc2c(cc1-c1cc(C(=O)N(C)c3ccc(O)cc3)c3n1CCCC3)CN(C(=O)COc1ccc(Cl)cc1)C2` [Example 49, 3-{2-[2-(4-Chlorophenoxy)acetyl]-6-[(3R)-3-methyl-1,2,3,4-tetrahydroisoquinoline-2-carbonyl]-2,3-dihydro-1H-isoindol-5-yl}-N-(4-hydroxyphenyl)-N-methyl-5,6,7,8-tetrahydroindolizine-1-carboxamide]: the values for the IC50 (in assay [1]; at Bcl-2 protein) were 58 nM and 23 nM, respectively.
Turning to `C[C@@H]1Cc2ccccc2CN1C(=O)c1cc2c(cc1-c1cc(C(=O)N(C)c3ccc(O)cc3)c3n1CCCC3)CN(C(=O)COc1cccc(Cl)c1)C2` [Example 50, 3-{2-[2-(3-Chlorophenoxy)acetyl]-6-[(3R)-3-methyl-1,2,3,4-tetrahydroisoquinoline-2-carbonyl]-2,3-dihydro-1H-isoindol-5-yl}-N-(4-hydroxyphenyl)-N-methyl-5,6,7,8-tetrahydroindolizine-1-carboxamide], the IC50 in assay [1] stood at 26 nM; at Bcl-2 protein it was 18 nM.
Take `COc1ccc(CC(=O)N2Cc3cc(C(=O)N4Cc5ccccc5C[C@H]4C)c(-c4cc(C(=O)N(C)c5ccc(O)cc5)c5n4CCCC5)cc3C2)cc1` [Example 51, N-(4-Hydroxyphenyl)-3-{2-[2-(4-methoxyphenyl)acetyl]-6-[(3R)-3-methyl-1,2,3,4-tetrahydroisoquinoline-2-carbonyl]-2,3-dihydro-1H-isoindol-5-yl}-N-methyl-5,6,7,8-tetrahydroindolizine-1-carboxamide]: the IC50 in assay [1] is 23 nM; at Bcl-2 protein, 5.5 nM.
On to `C[C@@H]1Cc2ccccc2CN1C(=O)c1cc2c(cc1-c1cc(C(=O)N(C)c3ccc(O)cc3)c3n1CCCC3)CN(C(=O)COc1ccccc1)C2` [Example 52, N-(4-Hydroxyphenyl)-N-methyl-3-{6-[(3R)-3-methyl-1,2,3,4-tetrahydroisoquinoline-2-carbonyl]-2-(2-phenoxyacetyl)-2,3-dihydro-1H-isoindol-5-yl}-5,6,7,8-tetrahydroindolizine-1-carboxamide], for which the IC50 in assay [1] was 56 nM; at Bcl-2 protein, 3.8 nM.
